According to patent US20070270348A1, “Compositions and Methods for Modulating Insulin-Activated Nitric Oxide Synthase” (priority 2004, published 2007):
Entries after “also recorded” stand apart in the source; their conditions may differ. Like-named read-outs stand apart in the source and are kept apart here. Ends that are not written are not given here.

Tests used:
human erythrocytes = experiment: Stimulation of nitric oxide synthesis from l-arginine in human erythrocyte suspension; assay type: cell-based
Procedure: Stimulation of nitric oxide synthesis from l-arginine by allimin in human erythrocytes was shown by incubation of a human erythrocyte suspension with different concentrations of purified allimin.
Fractions (1.5 ml each) were collected and the ability of each fraction to stimulate nitric oxide synthesis from l-arginine in human erythrocytes was determined.
The stimulation of nitric oxide synthesis was determined by assaying 0.1 ml of aqueous extracts of garlic or benzene purified allimin or different fractions from the SEPHADEX® column to erythrocyte suspensions in Kreb's buffer, pH 7.4. The formation of nitric oxide in the reaction mixture was quantitated by the conversion of oxyhemoglobin to methemoglobin. Quantitative amounts of nitric oxide in the reaction mixture were confirmed independently by chemiluminescence technique. Briefly 1.0 ml of the reaction supernatant was treated with 15 mM (final concentration) of oxyhemoglobin under N2. The spectral changes at 650, 630 and 575 nm due to the conversion of oxyhemoglobin to methemoglobin was continuously monitored by using a scanning BECKMAN spectrophotometer to quantitate nitric oxide formation using greater than 99% percent pure preparation of nitric oxide.
Blood was collected from healthy male and female volunteers, between the ages of 25-50 years, who had not taken any medication for at least for 14 days prior to the donation of blood. The blood was anti-coagulated by adding 1 volume 130 mM sodium citrate to 9 volumes of blood, mixed by gentle inversion, and the erythrocyte suspension was prepared.

[1] = tested on: mice epitrochlearis muscle; experiment: Glucose transport activity in epitrochlearis muscle; assay type: cell-based; conditions: insulin 200 μU/ml, allimin 50 μg/ml, NAME 10 μg/ml, mean ± SD
Procedure: (§1) The in vitro effect of allimin on glucose transport and glucose oxidation was compared with that of insulin in mice epitrochlearis muscle which is reported to be a model target tissue for insulin action. […] Addition of NAME to the incubation mixture inhibited the insulin-mimicking effect of allimin on both glucose transport and glucose oxidation. In another study, membranes from epitrochlearis muscle were prepared and the effect of allimin on the activation of the membrane tyrosine kinase and PI3 kinase were determined by incubating the membrane preparation with either insulin or allimin.
Mice epitochlearis muscle and the membrane of the muscle were prepared. Glucose transport activity was determined by incubating […] of epitochlearis muscle in Krebs-Ringer buffer, pH 7.4, in the presence of either insulin ([…]) or allimin ([…]) using a 2-deoxy D-^14C glucose. Glucose oxidation was determined by incubating […] of epitrochlearis muscle in Krebs-Ringer buffer, pH 7.4, in the presence of either insulin or allimin as indicated using U-14C glucose. Insulin- or allimin-induced activation of tyrosine kinase and PI3 kinase activities of the membrane preparation were determined using anti-phosphotyrosine antibody and PI3 kinase antibody, respectively, as described. Results shown in Table 4 are mean ±SD of 5 to 6 experiments using different animals.

[2] = tested on: mice epitrochlearis muscle; experiment: Glucose oxidation in epitrochlearis muscle; assay type: cell-based; conditions: insulin 200 μU/ml, allimin 50 μg/ml, NAME 10 μg/ml, mean ± SD
Procedure: as §1
The effect of allimin on the oxidation of glucose was compared with that of insulin. […] Glucose oxidation was determined.
(§2) Mice epitochlearis muscle and the membrane of the muscle were prepared. Glucose transport activity was determined by incubating […] of epitochlearis muscle in Krebs-Ringer buffer, pH 7.4, in the presence of either insulin ([…]) or allimin ([…]) using a 2-deoxy D-^14C glucose. Glucose oxidation was determined by incubating […] of epitrochlearis muscle in Krebs-Ringer buffer, pH 7.4, in the presence of either insulin or allimin as indicated using U-14C glucose. […]

membrane tyrosine kinase = experiment: Membrane tyrosine kinase activation; assay type: biochemical, mice; conditions: insulin 200 μU/ml, allimin 50 μg/ml, none = 100, mean ± SD
Procedure: as §1
The effect of allimin on the activation of epitrochlearis muscle membrane was determined using monoclonal anti-phosphotyrosine kinase antibody, Glu^80 Tyr^80 copolymer, and [^32P]-ATP and compared with that of insulin.
as §2

PI3 kinase = PI3 kinase activation of muscle membrane; assay type: biochemical, mice; conditions: insulin 200 μU/ml, allimin 50 μg/ml, none = 100, mean ± SD
Procedure: as §1
The activation of PI3 kinase of mice epitrochlearis muscle membrane either by allimin or insulin was determined using PI3 kinase antibody. […] The PI3 kinase activity was determined by CHCl3—CH3OH extraction and HPLC.
as §2

[3] = tested on: non-diabetic and alloxan-induced diabetic mice; experiment: Plasma nitric oxide level after oral administration in mice; assay type: in vivo
Procedure: The effect of oral administration of allimin on the plasma nitric oxide level in diabetic and non-diabetic mice was determined using alloxan-induced diabetic mice as compared to normal non-diabetic mice. […] Allimin was orally administered (75 μg/kg body weight) to non-diabetic and alloxan-induced diabetic mice. The plasma nitric oxide level was measured on different days. Results were obtained from 10 mice in each group in triplicate. While the plasma nitric oxide level in the diabetic mice was 0.1±0.02 nmol/ml, the nitric oxide level in the non-diabetic mice was 0.75±0.05 nmol/ml (p<0.05). Upon oral administration of allimin (75 micrograms/kg body weight), the plasma nitric oxide level was increased to 0.45±0.05 nmol/ml within 24 hours and continued to increase thereafter, to a maximum of 0.8±0.1 nmol/ml on the third day. On the fourth day, the plasma nitric oxide level began to gradually decrease. On the sixth day, the plasma nitric oxide level returned to the pretreatment level in the diabetic mice.
A total of 60 mice were studied.

EAC cells = experiment: Viability of EAC cells in peritoneal fluid; assay type: in vivo, Swiss albino mice
Procedure: Experiments were performed to determine the effects of allimin on the viability of EAC cells, a measure of the anti-neoplastic activity of allimin. Total EAC count (dead+viable cells) in peritoneal fluid was determined after 14 days of injection of EAC in the allimin treated and the untreated mice. […] It was noted that 25% of the viable EAC in the fluid of allimin-treated mice were twice as large (size) as compared to those in the untreated mice. This increase in cell size is indicative of the onset of death and the loss of the ability to regulate osmotic pressure (Ballas (1999) Merck Manual, Merck Research Laboratories, Whitehouse Station, N.J., pp. 1002-1023). The cellular basis for the decreased viability of the carcinoma cells in the allimin-treated mice was tested using a DNA fragmentation assay (Liu et al. (2000) Nucleic Acids Res. 28:4180-4188).

[4] = tested on: ADP-induced platelet aggregation; experiment: ADP-induced platelet aggregation in platelet rich plasma; assay type: cell-based; conditions: 40 nM, 30 minutes at 23° C., 6 μM ADP
Procedure: Given the role of nitric oxide in the function of platelets it is was determined whether allimin could modulate platelet aggregation. Platelet Rich Plasma (PRP) was isolated from citrated blood and incubated with […] Allimin for 30 minutes at 23° C. Subsequently, 6 μM adenosine 5′-diphosphate (ADP) was added and inhibition of ADP-induced platelet aggregation was recorded and compared with a control.

[5] = tested on: alloxan-induced diabetic mice; conditions: for duration of euglycemia / normal glucose levels after one dose: single oral bolus; for plasma glucose level: oral allimin
Procedure: To determine whether the increased plasma nitric oxide level achieved through the oral administration of allimin would result in the decrease of elevated plasma glucose levels in diabetic mice, the plasma glucose level was continuously monitored. […] In a further study, diabetic mice were injected with insulin (200 μunits/25 g) in their hind leg muscle instead of oral administration of allimin.
Inbred albino mice of both sexes were raised in an institutional facility from birth to age 2 months and weighed between 20-25 grams. These mice were allowed free access to feed and sterile water under 12 hour cycles of alternating light and dark. A total of 60 mice were studied. Group I consisted of 20 mice that were divided into 4 subgroups of 5 mice per subgroup. […] Group II consisted of 20 mice that were divided in 4 groups, 5 mice in each subgroup. All of the mice were made diabetic, one of the diabetic subgroup of mice received insulin and the second diabetic subgroup received oral administration of allimin.
Alloxan was used to induce diabetes in mice in accordance with standard methods. Blood glucose levels were determined by using glucose oxidase strips in a glucometer. The mice were considered to be diabetic when the blood glucose level after overnight fasting were 250-300 mg/dl as compared to 70-80 mg/dl in non-diabetic mice. […] When these diabetic mice were fed ad libitum, the blood glucose level increased to 400-450 mg/dl after 2 hours of feeding.

[6] = tested on: Ehrlich's ascitic carcinoma cells (EAC cells); experiment: Survival and body weight of mice with Ehrlich's carcinoma ascites; conditions: daily allimin
Text: In addition to normal or control mice, ascitic carcinoma was induced in Swiss albino mice by injecting approximately 10^6 Ehrlich's ascitic carcinoma cells (EAC cells) into the peritoneal cavity of mice (Hartveit et al. (1970) Acta. Pathol. Microbiol. Scand. 78:516-524). Animals were divided into two groups, one group receiving laboratory chow alone and the other receiving allimin (75 micrograms/kg body weight/day) along with laboratory chow. Animals in each group were given the respective diets for 10 days before both groups were injected with EAC cells. Dietary treatment then continued during ascites development such that an increase of an EAC cell count to 5×10^6 cells/ml was achieved.

mouse erythrocytes = experiment: Nitric oxide production in erythrocytes of mice injected with EAC cells; conditions: for NO produced by erythrocytes: EAC mice, allimin 75 micrograms/kg/day oral
Procedure: Using a well-established mouse model for anti-neoplastic drug testing (Hartveit et al. (1970) Acta. Pathol. Microbiol. Scand. 78:516-524), the effects of oral administration of allimin on the production of nitric oxide in mouse erythrocytes was examined. Blood was drawn from the tail vein of Swiss albino mice (2 months of age) and was anti-coagulated by adding sodium citrate to the blood sample. The erythrocyte suspension was prepared according to standard methods (Ray et al. (1986) Biochim. Biophys. Acta. 856:421-427). […] The formation of nitric oxide in the reaction mixture was quantitated by the conversion of oxyhemoglobin to methemaglobin (Jia et al. (1996) Nature 380:221-226) and verified by chemiluminescence techniques (Sinha et al. (1999) Life Sci. 265:2687-2696). In addition to normal or control mice, ascitic carcinoma was induced in Swiss albino mice by injecting approximately 10^6 Ehrlich's ascitic carcinoma cells (EAC cells) into the peritoneal cavity of mice (Hartveit et al. (1970) Acta. Pathol. Microbiol. Scand. 78:516-524). Animals were divided into two groups, one group receiving laboratory chow alone and the other receiving allimin (75 micrograms/kg body weight/day) along with laboratory chow. Animals in each group were given the respective diets for 10 days before both groups were injected with EAC cells. Dietary treatment then continued during ascites development such that an increase of an EAC cell count to 5×10^6 cells/ml was achieved.
For the preparation of erythrocyte suspensions from mice, blood was drawn from the tail vein and anti-coagulated by adding sodium citrate to the blood sample and a suspension was made as described by Ray et al. ((1986) Biochim. Biophys. Acta 856:421-427).

Molecule: COC(=O)[C@@H](N)CCCNC(=N)N[N+](=O)[O-] [NAME, NG-nitro L-arginine methyl ester, reference compound]
- inhibition of allimin-stimulated nitric oxide synthesis (human erythrocytes; 10 μM NAME added to reaction mixture with allimin): completely inhibited; also recorded: complete inhibition

Molecule: Allimin (XMIPTNGEGLYAGQSLDVEQYKFIMRPDDNLVXYX; X: residue not identified in the source; listed as Allium sp.)
- concentration at which synthesis of nitric oxide was maximally stimulated (human erythrocytes; human erythrocyte suspension): 8 nM
- Specific Activity (nmol NO/mg/h) (human erythrocytes; purification step of garlic extract, stimulation of NO synthesis): 563.75 nmol NO/mg/h
- Glucose transport [1]: 82 ± 6 nmol/g protein/minute
- Glucose Oxidation [2]: 306 ± 82 nmol/g protein/minute
- Tyrosine kinase activation (membrane tyrosine kinase): 215 ± 10 % activation
- PI3 kinase activation (PI3 kinase): 187 ± 12 % activation
- duration of elevation of plasma nitric oxide ([3]; diabetic mice, one time oral bolus dose): about five days; also recorded: four to five days
- day plasma nitric oxide level returned to pretreatment level ([3]; diabetic mice, single oral 75 micrograms/kg): sixth day
- plasma nitric oxide level, maximum ([3]; diabetic mice, single oral 75 micrograms/kg, third day): 0.8 ± 0.1 nmol/mL
- plasma nitric oxide level ([3]; diabetic mice, single oral 75 micrograms/kg, within 24 hours, pretreatment 0.1±0.02): 0.45 ± 0.05 nmol/mL
- day plasma nitric oxide level decreased to pretreatment level ([3]; non-diabetic mice, oral feeding): fourth day
- total EAC count (dead+viable cells) in peritoneal fluid (EAC cells; 14 days after injection of EAC): 7×10^6 cells/ml
- dead EAC count in peritoneal fluid (EAC cells; 14 days after injection of EAC, untreated 3×10^4): 2×10^5 cells/ml
- pathway of EAC cell death (DNA fragmentation assay) (EAC cells; oral allimin): induced the necrotic pathway
- viable EAC twice as large as in untreated mice (EAC cells; peritoneal fluid of treated mice): 25%
- inhibition of ADP-induced platelet aggregation [4]: potent inhibitor of platelet aggregation
- duration of euglycemia / normal glucose levels after one dose ([5]; diabetic animals): up to four or five days
- duration of euglycemia / normal glucose levels after one dose ([5]; diabetic animals, listed as allimin): four to five consecutive days
- plasma glucose level ([5]; diabetic mice, next four days): 120 to 130 mg/dL
- plasma glucose level ([5]; diabetic mice, sixth day): above 350 mg/dl
- plasma glucose level ([5]; diabetic mice, within next 12 hours, initial 470±20): 120 ± 10 mg/dL
- survival at 20 days ([6]; controls succumbed by day 20): survived the EAC carcinogenic insult at 20 days
- mice surviving at least 40 days ([6]; p<0.01): Ten percent
- nitric oxide production from erythrocytes restored to (mouse erythrocytes; allimin fed 10 days after the carcinogenic insult, 4.02% without): 92.78%
- NO produced by erythrocytes (mouse erythrocytes; day 1): 0.569 ± 0.02 nmol NO produced/10^8 cells/hour
- NO produced by erythrocytes (mouse erythrocytes; day 5): 0.392 ± 0.01 nmol NO produced/10^8 cells/hour
- NO produced by erythrocytes (mouse erythrocytes; day 10): 0.408 ± 0.02 nmol NO produced/10^8 cells/hour
- NO produced by erythrocytes (mouse erythrocytes; day 15): 0.440 ± 0.01 nmol NO produced/10^8 cells/hour
- NO produced by erythrocytes (mouse erythrocytes; day 20): 0.498 ± 0.02 nmol NO produced/10^8 cells/hour
- NO produced by erythrocytes (mouse erythrocytes; day 25): 0.532 ± 0.02 nmol NO produced/10^8 cells/hour
- NO produced by erythrocytes (mouse erythrocytes; day 30): 0.528 ± 0.03 nmol NO produced/10^8 cells/hour
- reduction of nitric oxide production in erythrocytes (mouse erythrocytes; twenty days after EAC injection, dietary allimin, 86.72% without): 12.48%

Molecule: Insulin: Insulin (trade name HUMULIN, obtained from Eli Lilly) [reference compound]
- Glucose transport [1]: 75 ± 4 nmol/g protein/minute
- Glucose Oxidation [2]: 278 ± 80 nmol/g protein/minute
- Tyrosine kinase activation (membrane tyrosine kinase): 210 ± 18 % activation
- PI3 kinase activation (PI3 kinase): 155 ± 10 % activation
- duration of control of hyperglycemia ([5]; diabetic animals, single intramuscular injection): less than 24 hours
- blood glucose level after injection ([5]; diabetic mice, 200 μunits/25 g in hind leg muscle, within next 24 hours): 350 ± 20 mg/dL
- effect of oral administration on elevated blood glucose level ([5]; diabetic mice, oral): no effect
